According to article PMC6637216 (BioImpacts : BI, 2019):
“And” between values parts separate entries of the source, which are not always exact repeats. Equal values may be shown once.

Legend:
[1] = molecular target: T1, AChE from Electrophorus electricus (electric eel) (Electrophorus electricus, UniProt O42275); experiment: Ellman colorimetric AChE inhibition and kinetics in aqueous phosphate buffer; type: biochemical; settings: for nH (Hill coefficient) / Vmax / α / α': aqueous buffer
[2] = molecular target: T1, AChE from Electrophorus electricus (electric eel); experiment: Ellman AChE inhibition and kinetics in HSA matrix; type: biochemical; settings: for ΔrIC50, relative decrease in inhibition potency in HSA versus buffer: (IC50(HSA)-IC50(Buffer))/IC50(Buffer)x100; for Vmax / α / α': HSA medium (in parentheses); for nH (Hill coefficient): HSA medium, values in parentheses
[3] = molecular target: AChE (Electrophorus electricus, UniProt O42275); experiment: ThT displacement from AChE; type: binding; settings: quenching of ThT-AChE fluorescence, 0.1 M phosphate buffer pH 8.0
Sequence of AChE (O42275 24-633): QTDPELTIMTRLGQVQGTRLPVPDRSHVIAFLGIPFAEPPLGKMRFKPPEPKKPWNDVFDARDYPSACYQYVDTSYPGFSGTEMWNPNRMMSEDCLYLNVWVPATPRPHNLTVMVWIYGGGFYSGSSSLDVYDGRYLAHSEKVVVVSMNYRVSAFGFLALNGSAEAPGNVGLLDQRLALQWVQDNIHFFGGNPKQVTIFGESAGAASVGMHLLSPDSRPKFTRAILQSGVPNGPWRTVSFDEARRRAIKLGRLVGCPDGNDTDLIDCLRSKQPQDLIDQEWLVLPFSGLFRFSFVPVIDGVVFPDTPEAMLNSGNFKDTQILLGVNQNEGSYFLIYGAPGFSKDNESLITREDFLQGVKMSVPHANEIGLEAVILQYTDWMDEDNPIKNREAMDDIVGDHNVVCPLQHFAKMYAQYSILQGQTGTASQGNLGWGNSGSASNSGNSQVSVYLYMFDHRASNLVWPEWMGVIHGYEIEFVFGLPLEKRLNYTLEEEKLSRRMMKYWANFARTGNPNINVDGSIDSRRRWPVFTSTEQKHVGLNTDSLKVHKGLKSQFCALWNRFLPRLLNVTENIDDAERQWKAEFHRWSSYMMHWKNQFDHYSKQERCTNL

T1 sequence (O42275 24-633): as above

Cc1cc(=O)c2ccc(N)cc2o1 [AMC, 7-amino-2-methylchromone]
IC50 [1]: 103 ± 11.9 nM
nH (Hill coefficient) [1]: 1.45 ± 0.1
Vmax ([1]; inhibitor 5 nM): 670 ± 26 nM/s
α ([1]; inhibitor 5 nM): 1.2 (1.2)
α' ([1]; inhibitor 5 nM): 1.2 (1.2)
Vmax ([1]; inhibitor 10 nM): 560 ± 39 nM/s
α ([1]; inhibitor 10 nM): 1.4
α' ([1]; inhibitor 10 nM): 1.4 (1.4)
IC50 [2]: 115 nM
ΔrIC50, relative decrease in inhibition potency in HSA versus buffer [2]: ~ 5% and 5%
Vmax ([2]; inhibitor 5 nM): 711 ± 47 nM/s
α ([2]; inhibitor 5 nM): 1.2 (1.2)
α' ([2]; inhibitor 5 nM): 1.2 (1.2)
Vmax ([2]; inhibitor 10 nM): 557 ± 39 nM/s
α ([2]; inhibitor 10 nM): 1.5
α' ([2]; inhibitor 10 nM): 1.4 (1.4)
nH (Hill coefficient) [2]: 1.52±0.1
KSV (Stern-Volmer constant) [3]: 230000 M⁻¹

N#Cc1coc2ccccc2c1=O [CyC, 3-cyanochromone]
IC50 [1]: 85.1 ± 6.7 nM
nH (Hill coefficient) [1]: 1.51 ± 0.1
Vmax ([1]; inhibitor 5 nM): 631 ± 21 nM/s
α ([1]; inhibitor 5 nM): 1.3
α' ([1]; inhibitor 5 nM): 1.3
Vmax ([1]; inhibitor 10 nM): 538 ± 31 nM/s
α ([1]; inhibitor 10 nM): 1.5
α' ([1]; inhibitor 10 nM): 1.5
IC50 [2]: 113 nM
ΔrIC50, relative decrease in inhibition potency in HSA versus buffer [2]: ~ 32% and 32%
Vmax ([2]; inhibitor 5 nM): 730 ± 17 nM/s
α ([2]; inhibitor 5 nM): 1.1
α' ([2]; inhibitor 5 nM): 1.1
Vmax ([2]; inhibitor 10 nM): 671 ± 30 nM/s
α ([2]; inhibitor 10 nM): 1.2
α' ([2]; inhibitor 10 nM): 1.2
nH (Hill coefficient) [2]: 1.89±0.17
KSV (Stern-Volmer constant) [3]: 370000 M⁻¹
